Data as given in the supplement of paper PMC10331698.
± gives the standard deviation of the averaged measurements.

Tests used:
Experiment in all cases: level (log10 ratio to DMSO vehicle control); higher = higher biomarker level / cell amount than vehicle control
Conditions in all cases: in DMSO
Pentafluoropropionamide = compound: NC(=O)C(F)(F)C(F)(F)F [Pentafluoropropionamide]
Protocol: (§1)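 BioMAP Diversity Plus panel of 12 human primary cell co-culture systems (3C, 4H, LPS, SAg, BT, BF4T, BE3C, CASM3C, HDF3CGF, KF3CT, MyoF, Mphg). Compounds were added 1 h before stimulation and left for 24 h (MyoF 48 h; BT 72 h for soluble read-outs or 6 d for IgG). Biomarkers were read by ELISA, cytotoxicity by SRB, PBMC viability and proliferation by Alamar Blue. Each well value was divided by the mean of 8 DMSO control wells on the same plate and log10 transformed; duplicate blinded samples were tested at 4 concentrations.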

[1] = compound: O=C(O)C(F)(F)C(F)(F)C(F)F [4H-Perfluorobutanoic acid]
Protocol: as §1

Perfluoropentanoic acid = compound: O=C(O)C(F)(F)C(F)(F)C(F)(F)C(F)(F)F [Perfluoropentanoic acid]
Protocol: as §1

[2] = compound: O=C(O)C(F)(F)C(F)(F)OC(F)(F)F [Perfluoro-3-methoxypropanoic acid]
Protocol: as §1

[3] = compound: FC(F)(F)C(F)(C(F)(F)F)C(F)(F)C(F)(F)CC1CO1 [3-(Perfluoro-3-methylbutyl)-1,2-propenoxide]
Protocol: as §1

[4] = compound: O=C(O)C(F)(F)C(F)(F)C(F)(F)OC(F)(C(F)(F)F)C(F)(F)F [Perfluoro-4-isopropoxybutanoic acid]
Protocol: as §1

[5] = compound: O=S(=O)(O)C(F)(F)C(F)(F)C(F)(F)C(F)(F)C(F)(F)C(F)(F)F [Perfluorohexanesulfonic acid]
Protocol: as §1

| Test System | level (log10) (Pentafluoropropionamide; 6700 nM) | level (log10) (Pentafluoropropionamide; 20000 nM) | level (log10) (Pentafluoropropionamide; 60000 nM) | level (log10) ([1]; 6700 nM) | level (log10) ([1]; 20000 nM) | level (log10) ([1]; 60000 nM) | level (log10) (Perfluoropentanoic acid; 6700 nM) | level (log10) (Perfluoropentanoic acid; 20000 nM) | level (log10) (Perfluoropentanoic acid; 60000 nM) | level (log10) ([2]; 6700 nM) | level (log10) ([2]; 20000 nM) | level (log10) ([2]; 60000 nM) | level (log10) ([3]; 6700 nM) | level (log10) ([3]; 20000 nM) | level (log10) ([4]; 6700 nM) | level (log10) ([4]; 20000 nM) | level (log10) ([4]; 60000 nM) | level (log10) ([5]; 6700 nM) | level (log10) ([5]; 20000 nM) | level (log10) ([5]; 60000 nM) |
| --- | --- | --- | --- | --- | --- | --- | --- | --- | --- | --- | --- | --- | --- | --- | --- | --- | --- | --- | --- | --- |
| BT:sIL-17A | 0.0075 ± 0.1 | -0.031 ± 0.051 | 0.0105 ± 0.015 | 0.067 ± 0.13 | -0.085 ± 0.02 | -0.158 ± 0.033 | 0.0585 ± 0.042 | -0.0535 ± 0.0078 | 0.055 ± 0.13 | 0.035 ± 0.27 | -0.0495 ± 0.076 | 0.0575 ± 0.12 | 0.135 ± 0.0092 | -0.0585 ± 0.032 | 0.027 ± 0.05 | 0.052 ± 0.096 | -0.0105 ± 0.21 | 0.135 ± 0.11 | -0.0225 ± 0.25 | -0.133 |
| BE3C:CXCL9/MIG | 0.004 ± 0.0028 | -0.0015 ± 0.011 | 0.0075 ± 0.0035 | -0.0015 ± 0.011 | 0.0085 ± 0.022 | 0.0135 ± 0.0092 | -0.0035 ± 0.0092 | -0.012 ± 0.013 | 0.007 ± 0.018 | 0.005 ± 0.0014 | 0.0095 ± 0.018 | 0.0105 ± 0.0021 | -0.005 ± 0.0042 | -0.0035 ± 0.005 | 0.001 ± 0.0028 | 0.012 ± 0.0071 | 0.014 ± 0.017 | 0.0035 ± 0.0092 | -0.001 ± 0.0028 | -0.007 ± 0.0028 |
| 3C:CXCL9/MIG | -0.0025 ± 0.0078 | -0.011 ± 0.0071 | 0.0085 ± 0.012 | 0.005 ± 0.0042 | 0.0035 ± 0.013 | 0.012 ± 0.0014 | -0.0085 ± 0.018 | -0.0125 ± 0.03 | 0.0095 ± 0.028 | 0.0025 ± 0.0021 | -0.0065 ± 0.0078 | 0.0115 ± 0.00071 | -0.011 ± 0.0042 | -0.0025 ± 0.005 | -0.0015 ± 0.0078 | -0.0085 ± 0.0021 | 0.0105 ± 0.0035 | 0.0015 ± 0.0035 | 0.0035 ± 0.0092 | 0.007 ± 0.0085 |
| SAg:CD62E/E-Selectin | -0.0215 ± 0.005 | -0.0095 ± 0.026 | -0.0115 ± 0.018 | -0.0205 ± 0.018 | -0.002 ± 0.0014 | 0.0175 ± 0.0078 | 0.0005 ± 0.0064 | -0.012 ± 0.013 | 0.0195 ± 0.025 | 0.004 ± 0.0099 | -0.01 ± 0.018 | -0.016 ± 0.018 | -0.0195 ± 0.019 | -0.012 | -0.0025 ± 0.0021 | 0.0125 ± 0.015 | -0.01 ± 0.023 | -0.0115 ± 0.00071 | -0.008 ± 0.02 | 0.0405 ± 0.0064 |
| SAg:CD40 | -0.041 ± 0.0071 | -0.0195 ± 0.015 | -0.0445 ± 0.0021 | 0 ± 0.0028 | -0.056 ± 0.045 | -0.028 ± 0.044 | 0.0105 ± 0.005 | 0.0025 ± 0.0064 | -0.001 ± 0.025 | 0.013 ± 0.0071 | 0.01 ± 0.0042 | -0.0055 ± 0.019 | -0.018 ± 0.025 | -0.0205 ± 0.039 | 0.0105 ± 0.023 | 0.0165 ± 0.005 | -0.008 ± 0.018 | 0.001 ± 0.0071 | -0.012 ± 0.0099 | -0.029 ± 0.011 |
| SAg:PBMC Cytotoxicity | 0.0005 ± 0.052 | 0.026 ± 0.0042 | 0.0245 ± 0.012 | -0.0205 ± 0.015 | 0.002 ± 0.0042 | 0.017 ± 0.033 | -0.0105 ± 0.023 | -0.0135 ± 0.012 | 0.0145 ± 0.022 | 0.034 ± 0.014 | 0.016 ± 0.013 | -0.0115 ± 0.011 | 0.008 ± 0.0071 | 0.016 ± 0.023 | 0.0225 ± 0.026 | 0.0245 ± 0.028 | 0.0425 ± 0.022 | -0.025 ± 0.0042 | -0.0175 ± 0.026 | 0.0085 ± 0.012 |
| 4H:VEGFR2 | 0.032 ± 0.014 | 0.034 ± 0.027 | 0.072 ± 0.031 | -0.0255 ± 0.015 | -0.005 ± 0.042 | 0.012 ± 0.05 | 0.0065 ± 0.056 | 0.0025 ± 0.013 | 0.008 ± 0.025 | -0.085 ± 0.041 | -0.0895 ± 0.05 | -0.009 ± 0.093 | -0.001 ± 0.014 | 0.0245 ± 0.026 | -0.0575 ± 0.015 | -0.056 ± 0.037 | -0.0215 ± 0.088 | -0.021 ± 0.037 | -0.0125 ± 0.052 | 0.03 ± 0.038 |
